From patent publication US7927613B2, “Pharmaceutical co-crystal compositions” (University of South Florida, priority 2002, dated 2011) come the findings set out here.

One data set in a line: Dissolution profile. The class given is physicochemical. As to conditions: vs. itraconazole free base (FIG. 28). The text has this: In another aspect of the present invention, the dissolution profile of the API is modulated whereby the aqueous dissolution rate or the dissolution rate in simulated gastric fluid or in simulated intestinal fluid, or in a solvent or plurality of solvents is increased. Dissolution rate is the rate at which API solids dissolve in a dissolution medium. For APIs whose absorption rates are faster than the dissolution rates (e.g., steroids), the rate-limiting step in the absorption process is often the dissolution rate. Because of a limited residence time at the absorption site, APIs that are not dissolved before they are removed from intestinal absorption site are considered useless. Therefore, the rate of dissolution has a major impact on the performance of APIs that are poorly soluble. Because of this factor, the dissolution rate of APIs in solid dosage forms is an important, routine, quality control parameter used in the API manufacturing process. […] For rapid API absorption, Cs−C is approximately equal to Cs The dissolution rate of APIs may be measured by conventional means known in the art. […] Conditions under which the dissolution rate is measured is the same as discussed above The increase in dissolution may be further specified by the time the composition remains supersaturated before reaching equilibrium solubility.

Broadly, the melting point is the temperature of the solid-liquid transition. As to `CCOc1ccc(NC(N)=O)cc1` [4-ethoxyphenyl urea], the melting point lay within 173 to 174 °C.
As to “itraconazole and malic acid [itraconazole:malic acid]”, the dissolution profile entry in “Dissolution profile” is “modulated dissolution profile”.
